From article PMC8246065 (The EMBO Journal, 2021) come the findings set out here.

Where two headings read alike, the source gives them in different places.

One assay deals with NOD2 (Homo sapiens, UniProt Q9HC29). Kind of assay: Microscale thermophoresis (MST) binding to purified NOD2-GFP. As for the experimental part: The lysates were incubated with 2 ml GFP‐Trap agarose at 4°C for 4 h. The agarose was collected with Poly‐Prep columns by gravity flow. […] To remove heat shock proteins, columns were further washed with 50 ml wash buffer III (50 mM Tris–HCl, pH 7.5, 150 mM NaCl, 5 mM MgCl2+, 1 mM ATP). To elute the proteins, the agarose was mixed with 2 ml elution buffer (100 mM Glycine, pH 2.5) for 1 min and the eluted proteins were immediately neutralized with 0.2 ml of 1 M Tris, pH 10.5.
(In general: MST reads how a fluorescent partner responds to local heating, with and without ligand.)

Another assay deals with T1, NOD1 H517A (Homo sapiens, UniProt Q9Y239, H517A).
T1 construct: made in house
T1 sequence (Q9Y239 1-953 H517A): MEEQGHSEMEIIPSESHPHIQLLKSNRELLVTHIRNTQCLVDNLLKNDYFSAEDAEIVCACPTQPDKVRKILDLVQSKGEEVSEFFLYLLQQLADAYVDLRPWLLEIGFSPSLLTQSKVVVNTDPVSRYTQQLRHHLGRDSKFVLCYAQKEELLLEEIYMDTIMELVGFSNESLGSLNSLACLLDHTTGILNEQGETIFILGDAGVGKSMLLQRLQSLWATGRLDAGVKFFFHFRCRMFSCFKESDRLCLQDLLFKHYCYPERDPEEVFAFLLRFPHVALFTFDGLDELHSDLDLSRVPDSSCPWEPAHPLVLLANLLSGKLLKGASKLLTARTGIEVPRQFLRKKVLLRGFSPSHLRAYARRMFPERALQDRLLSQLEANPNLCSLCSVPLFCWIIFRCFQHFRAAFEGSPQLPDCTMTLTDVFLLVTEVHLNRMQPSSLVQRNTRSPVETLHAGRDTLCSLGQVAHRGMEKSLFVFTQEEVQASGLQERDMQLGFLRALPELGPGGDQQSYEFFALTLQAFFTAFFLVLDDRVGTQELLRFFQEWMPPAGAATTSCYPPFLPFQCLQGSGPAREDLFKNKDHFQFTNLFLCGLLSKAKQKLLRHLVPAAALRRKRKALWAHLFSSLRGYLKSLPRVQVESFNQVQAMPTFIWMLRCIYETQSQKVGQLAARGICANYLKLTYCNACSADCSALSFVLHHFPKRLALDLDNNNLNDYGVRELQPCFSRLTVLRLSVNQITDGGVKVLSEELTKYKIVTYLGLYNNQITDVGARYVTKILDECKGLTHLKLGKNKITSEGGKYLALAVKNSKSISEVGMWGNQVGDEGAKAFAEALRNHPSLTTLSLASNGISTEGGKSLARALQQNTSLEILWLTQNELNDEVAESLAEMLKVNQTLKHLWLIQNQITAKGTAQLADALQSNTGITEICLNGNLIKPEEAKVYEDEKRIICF
Kind of assay: MST binding to purified NOD1 H517A-GFP. As for the experimental part: The mutagenesis was performed with Q5® site‐directed mutagenesis kit (E0554, NEB) according to the manufacturer's instructions. The primers used in this study were as follows: NOD1 E157A F: 5′‐[…]gcg[…]‐3′, NOD1 E157A R: 5′‐[…]‐3′, NOD1 D161A F: 5′‐[…]gcg[…]‐3′, NOD1 D161A R: 5′‐[…]‐3′, NOD1 D203A F: 5′‐[…]gcg[…]‐3′, D203A R: 5′‐[…]‐3′, L218A F: 5′‐[…]gcg[…]‐3′, L218A R: 5′‐[…]‐3′, R237A F: 5′‐[…]gcg[…]‐3′, R237A R: 5′‐[…]‐3′, H257A F: 5′‐[…]gcg[…]‐3′, H257A R: 5′‐[…]‐3′, E267A F: 5′‐[…]gcg[…]‐3′, E267A R: 5′‐[…]‐3′, H290A F: 5′‐[…]gcg[…]‐3′, H290A R: 5′‐[…]‐3′, E306A F: 5′‐[…]gcg[…]‐3′, E306A R: 5′‐[…]‐3′, K324A F: 5′‐[…]gcg[…]‐3′, K324A R: 5′‐[…]‐3′, K328A F: 5′‐[…]gcg[…]‐3′, K328A R: 5′‐[…]‐3′, R340A F: 5′‐[…]gcg[…]‐3′, R340A R: 5′‐[…]‐3′, R344A F: 5′‐[…]gcg[…]‐3′, R344A R: 5′‐[…]‐3′, R350A F: 5′‐[…]gcg[…]‐3′, R350A R: 5′‐[…]‐3′, D372A F: 5′‐[…]gcg[…]‐3′, D372A R: 5′‐[…]‐3′, R373A F: 5′‐[…]gcg[…]‐3′, R373A R: 5′‐[…]‐3′, R399A F: 5′‐[…]gcg[…]‐3′, R399A R: 5′‐[…]‐3′, D423A F: 5′‐[…]gcg[…]‐3′, D423A R: 5′‐[…]‐3′, R435A F: 5′‐5′‐[…]gcg[…]‐3′, R435A R: 5′‐[…]‐3′, Q484A F: 5′‐[…]gcg[…]‐3′, Q484A R: 5′‐[…]‐3′, L495A F: 5′‐[…]gcg[…]‐3′, L495A R: 5′‐[…]‐3′, E514A F: 5′‐[…]gcg[…]‐3′, E514A R: 5′‐[…]‐3′, H517A F: 5′‐[…]gcg[…]‐3′, H517A R: 5′‐[…]‐3′, L540A F: 5′‐[…]gcg[…]‐3′, L540A R: 5′‐[…]‐3′, F544A F: 5′‐[…]gcg[…]‐3′, and F544A R: 5′‐[…]‐3′.

A further assay deals with NOD1/2. As to the kind of experiment: dSTORM imaging of HeLa NOD1 or NOD2 cells. Conditions: S1P 20 µM, 2 h. The format is cell-based, human. As for the experimental part: For dSTORM, HeLa inducible NOD1‐GFP or NOD2‐GFP cells were grown on µ‐Slides with glass bottom (ibidi, Germany) and treated with doxycycline overnight to induce NOD1‐GFP or NOD2‐GFP expression. […] Then, cells were fixed with 4% (v:v) paraformaldehyde in PBS, pH 7.4 for 10 min at room temperature (RT). After washing twice with PBS, cells were incubated with 50 mM glycine in PBS, pH 7.4 for 10 min and permeabilized with 0.05% saponin (Sigma‐Aldrich, 47036), 1% BSA in PBS for 10 min. Rabbit anti‐GFP antibody (ChromoTek) and Alex Fluor 647‐conjugated goad anti‐rabbit antibody (Thermo Fisher Scientific) were diluted in PBS and incubated for 1 h at room temperature. The super resolution imaging was performed with Nanoimager S (Oxford Nanoimaging). For single particle tracking in live cells, Nanoimager S was pre‐warmed at 37°C. […] Medium was then replaced with fresh DMEM without phenol red. Live imaging was performed with Nanoimager S at acquisition speed of 100fps.

Sequence of NOD2 (Q9HC29 whole entry): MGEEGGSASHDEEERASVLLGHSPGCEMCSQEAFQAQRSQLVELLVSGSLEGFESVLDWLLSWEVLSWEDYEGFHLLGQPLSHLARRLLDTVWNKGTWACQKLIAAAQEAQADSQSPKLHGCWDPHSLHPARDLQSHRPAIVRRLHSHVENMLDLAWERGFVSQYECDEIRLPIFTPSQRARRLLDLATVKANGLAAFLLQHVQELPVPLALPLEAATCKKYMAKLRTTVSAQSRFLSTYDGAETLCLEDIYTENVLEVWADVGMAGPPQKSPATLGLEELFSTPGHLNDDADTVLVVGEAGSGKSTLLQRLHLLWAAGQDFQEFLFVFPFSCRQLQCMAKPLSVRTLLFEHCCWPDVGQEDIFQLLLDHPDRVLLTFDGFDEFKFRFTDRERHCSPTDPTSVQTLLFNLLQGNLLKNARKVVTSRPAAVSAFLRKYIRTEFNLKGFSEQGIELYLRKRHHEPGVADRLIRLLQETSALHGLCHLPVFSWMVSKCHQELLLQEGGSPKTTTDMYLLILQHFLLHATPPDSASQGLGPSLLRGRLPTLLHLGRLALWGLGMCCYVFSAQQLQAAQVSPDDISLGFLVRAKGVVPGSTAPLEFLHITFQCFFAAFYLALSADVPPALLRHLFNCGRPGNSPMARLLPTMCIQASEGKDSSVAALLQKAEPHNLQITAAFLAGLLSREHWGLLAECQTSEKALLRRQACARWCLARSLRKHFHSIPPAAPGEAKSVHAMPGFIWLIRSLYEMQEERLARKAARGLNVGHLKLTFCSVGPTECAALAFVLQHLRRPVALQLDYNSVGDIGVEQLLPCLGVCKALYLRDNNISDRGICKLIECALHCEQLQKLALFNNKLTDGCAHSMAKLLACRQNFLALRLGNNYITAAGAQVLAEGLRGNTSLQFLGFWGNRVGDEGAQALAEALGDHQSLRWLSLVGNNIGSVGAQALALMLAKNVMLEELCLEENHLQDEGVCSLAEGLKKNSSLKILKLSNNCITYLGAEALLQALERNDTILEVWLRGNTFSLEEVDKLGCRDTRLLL

`CCCCCCCCCCCCC/C=C/[C@@H](O)[C@@H](N)COP(=O)(O)O` [S1P, sphingosine‐1‐phosphate]: the Kd at NOD2 (Fig 6E, one representative experiment, read-out: Kd (NOD2/ligand)) is 5.36 ± 1.91 µM; on NOD2 (Fig EV5C, purified NOD2, read-out: Kd (NOD2/ligand)), 3.19 ± 1.97 µM; at NOD2 (Kd value of S1P interacting with NOD2, as stated in text) it was roughly 5 µM; on NOD2 (Kd(NOD2: S1P), Fig 7D, S1P alone), 2.4 ± 0.38 µM; at NOD1 H517A (Kd value of NOD1 H517A with S1P) it was roughly 15 µM; on NOD1 H517A (Kd(NOD1 H517A: S1P), Fig 7E), 13.7 ± 6.1 µM. Besides, the “Oligomerization of NOD1/2” value in the assay on NOD1/2 was “oligomerization of NOD1/2 induced”.
